According to publication PMC9928189 (ACS catalysis, 2022):
Changes are numbered by the printed parent chain.

Assays:
Assay in all cases: X-ray crystal structure
Type in all cases: binding
MroM-A2 = biological target: T1, MroM-A2 (Mycena rosella, UniProt A0A9X9ZA29); details: 1.86 Å; core peptide A2 fused and N-methylated
T1 sequence (A0A9X9ZA29 4-400): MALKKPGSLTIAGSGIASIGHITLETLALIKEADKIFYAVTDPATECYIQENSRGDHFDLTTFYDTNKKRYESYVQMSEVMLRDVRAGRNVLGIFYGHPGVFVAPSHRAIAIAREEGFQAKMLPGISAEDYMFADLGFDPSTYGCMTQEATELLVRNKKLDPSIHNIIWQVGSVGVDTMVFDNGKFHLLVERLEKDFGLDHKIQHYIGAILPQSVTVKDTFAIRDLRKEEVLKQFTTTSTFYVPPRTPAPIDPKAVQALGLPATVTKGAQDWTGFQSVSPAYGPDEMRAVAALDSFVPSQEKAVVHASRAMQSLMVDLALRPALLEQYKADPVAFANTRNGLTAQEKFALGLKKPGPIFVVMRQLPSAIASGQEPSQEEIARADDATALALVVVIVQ

MroM-CspL = biological target: T2, MroM-CspL (Mycena rosella, UniProt A0A9X9ZA30); details: 1.93 Å; cyclosporin-like core fused and N-methylated
T2 sequence (A0A9X9ZA30 4-402): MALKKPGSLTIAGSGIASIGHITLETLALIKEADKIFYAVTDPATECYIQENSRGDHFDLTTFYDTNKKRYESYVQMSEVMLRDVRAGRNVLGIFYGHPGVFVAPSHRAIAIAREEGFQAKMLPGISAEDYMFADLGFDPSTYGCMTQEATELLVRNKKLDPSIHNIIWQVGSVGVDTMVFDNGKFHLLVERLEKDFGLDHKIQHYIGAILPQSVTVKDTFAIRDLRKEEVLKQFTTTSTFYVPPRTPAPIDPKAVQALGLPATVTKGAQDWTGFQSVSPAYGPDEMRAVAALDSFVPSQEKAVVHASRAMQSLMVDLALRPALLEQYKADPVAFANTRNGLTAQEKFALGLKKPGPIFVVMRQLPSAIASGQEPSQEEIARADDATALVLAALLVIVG

MroM-A1 = biological target: T3, MroM-A1 (Mycena rosella, UniProt A0A9X9ZA27); details: 1.79 Å; core peptide A1 fused and N-methylated
T3 sequence (A0A9X9ZA27 4-400): T1 sequence (A0A9X9ZA29 4-400) with L389F, A390I, L391I, V392I, V393Y, V394I, I395V, V396Q, Q397G

In the case of Nc1ncnc2c1ncn2[C@@H]1O[C@H](CSCC[C@H](N)C(=O)O)[C@@H](O)[C@H]1O [S-adenosylhomocysteine], the X-ray crystal structure (MroM-A2) is reported as “Each structure was determined in complex with product S-adenosylhomocysteine (SAH)”, the X-ray crystal structure (MroM-CspL) is reported as “Each structure was determined in complex with product S-adenosylhomocysteine (SAH)” and the X-ray crystal structure (MroM-A1) is reported as “Each structure was determined in complex with product S-adenosylhomocysteine (SAH)”.
